In ChEMBL document CHEMBL1201862, “PubChem BioAssay data set” (2004):
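Protocol summary: plate cells (96-well), add compound at 5 concentrations, incubate 48 h, interpolate endpoints linearly. GI50 = concentration required for 50% inhibition of growth.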 Active and inactive are the calls of the source. Cut-off read from the data, not from the text of the source: active = GI50 up to about 1.1 µM and inactive = higher.

Assays:
Test in all cases: DTP human tumour cell line panel, 48 h
M14 = system: M14
COLO 205 = system: COLO 205
U-251 = system: U-251
Malme-3M = system: Malme-3M
SN12C = system: SN12C
CAKI-1 = system: CAKI-1
OVCAR-5 = system: OVCAR-5
SK-MEL-5 = system: SK-MEL-5
HOP-62 = system: HOP-62
HCT-15 = system: HCT-15
NCI-H460 = system: NCI-H460
UACC-257 = system: UACC-257
KM12 = system: KM12
786-0 = system: 786-0
OVCAR-8 = system: OVCAR-8
NCI-H226 = system: NCI-H226
SK-MEL-2 = system: SK-MEL-2
SR = system: SR

Row | Compound | GI50 (M14) | GI50 (COLO 205) | GI50 (U-251) | GI50 (Malme-3M) | GI50 (SN12C) | GI50 (CAKI-1) | GI50 (OVCAR-5) | GI50 (SK-MEL-5) | GI50 (HOP-62) | GI50 (HCT-15) [µM] | GI50 (NCI-H460) | GI50 (UACC-257) | GI50 (KM12) | GI50 (786-0) | GI50 (OVCAR-8) | GI50 (NCI-H226) | GI50 (SK-MEL-2) | GI50 (SR)
1 | COC(=O)C(Cc1c[nH]c2ccccc12)NC(=O)C(Cc1c[nH]c2ccccc12)NC(=O)OCc1ccccc1 (stereo not drawn) | 18.2 µM (inactive) | 16.8 µM (inactive) | 16.9 µM (inactive) | 39.6 µM (inactive) | 17.1 µM (inactive) | 19.9 µM (inactive) | 17.6 µM (inactive) | 29.5 µM (inactive) | 19.7 µM (inactive) | 17.4 | 18.1 µM (inactive) | > 100 µM (inactive) | 19.1 µM (inactive) | 16.2 µM (inactive) | 17.9 µM (inactive) | 22.1 µM (inactive) |  | 
2 | CCOC(=O)C1N(S(=O)(=O)c2ccc(C)cc2)CCC12c1ccccc1N(C(C)=O)C2c1ccc(OC)c(OC)c1 (stereo not drawn) | > 100 µM (inactive) | > 100 µM (inactive) | > 100 µM (inactive) | > 100 µM (inactive) | > 100 µM (inactive) | 76.7 µM (inactive) | > 100 µM (inactive) | > 100 µM (inactive) | > 100 µM (inactive) |  | > 100 µM (inactive) | > 100 µM (inactive) | > 100 µM (inactive) | > 100 µM (inactive) | > 100 µM (inactive) | 19.9 µM (inactive) |  | 
3 | O=C(CCC(=O)C(C(=O)c1ccccc1)c1ccccc1)Nc1cccc(C(F)(F)F)c1 (stereo not drawn) | > 100 µM (inactive) | > 100 µM (inactive) | > 100 µM (inactive) | > 100 µM (inactive) | > 100 µM (inactive) | > 100 µM (inactive) | > 100 µM (inactive) |  |  | > 100 | > 100 µM (inactive) | > 100 µM (inactive) | > 100 µM (inactive) | > 100 µM (inactive) | > 100 µM (inactive) | > 100 µM (inactive) | > 100 µM (inactive) | 
4 | COCOCc1cc(OCc2ccccc2)c(OC)cc1Br |  | > 100 µM (inactive) | > 100 µM (inactive) | > 100 µM (inactive) | > 100 µM (inactive) | 64.3 µM (inactive) | > 100 µM (inactive) | 61.1 µM (inactive) | > 100 µM (inactive) | 40.9 | > 100 µM (inactive) | > 100 µM (inactive) | > 100 µM (inactive) | > 100 µM (inactive) | > 100 µM (inactive) |  | > 100 µM (inactive) | 63.1 µM (inactive)
5 | N#CC(C#N)=c1c2nsnc2c(=C(C#N)C#N)c2nsnc12 | 2.07 µM (inactive) | 2.52 µM (inactive) | 1.79 µM (inactive) | 1.65 µM (inactive) |  | 1.86 µM (inactive) | 1.89 µM (inactive) |  | 2.04 µM (inactive) |  | 2.08 µM (inactive) | 1.94 µM (inactive) | 1.85 µM (inactive) | 5.16 µM (inactive) | 1.69 µM (inactive) | 16.7 µM (inactive) | 2.02 µM (inactive) | 
6 | Cc1nc2c(N)ncnc2o1 | > 100 µM (inactive) | > 100 µM (inactive) | > 100 µM (inactive) | > 100 µM (inactive) | > 100 µM (inactive) | > 100 µM (inactive) | > 100 µM (inactive) | > 100 µM (inactive) | > 100 µM (inactive) | > 100 | > 100 µM (inactive) | > 100 µM (inactive) | > 100 µM (inactive) | > 100 µM (inactive) | > 100 µM (inactive) | > 100 µM (inactive) | > 100 µM (inactive) | 
7 | COc1ccc2c(C(=O)O)cc3ccccc3c2c1OC | 16.4 µM (inactive) | 22.1 µM (inactive) | 40.9 µM (inactive) | 21.9 µM (inactive) | 20.9 µM (inactive) |  | 19.1 µM (inactive) |  | 69.3 µM (inactive) |  |  | 17.1 µM (inactive) | 18.3 µM (inactive) | 15.7 µM (inactive) | 22 µM (inactive) | 24.4 µM (inactive) | 30.5 µM (inactive) | 30.5 µM (inactive)
8 | O=[N+]([O-])C(=C(c1ccccc1)c1ccccc1)[N+](=O)[O-] | 11.9 µM (inactive) | 12.4 µM (inactive) | 13.6 µM (inactive) |  | 15.5 µM (inactive) | 21.1 µM (inactive) | 19.9 µM (inactive) |  | > 10 µM (inactive) | 13.8 | 5.57 µM (inactive) | 13.1 µM (inactive) | 15.5 µM (inactive) | 14.5 µM (inactive) | 9.86 µM (inactive) | 31.1 µM (inactive) | 2.43 µM (inactive) | 3.29 µM (inactive)
9 | Cc1nc2c(n1CCC(C)C)C(=O)c1ccccc1C2=O | 20.1 µM (inactive) | 14.3 µM (inactive) | 12.7 µM (inactive) | 24.1 µM (inactive) | 23.2 µM (inactive) |  |  | 14.6 µM (inactive) | 18 µM (inactive) | 11.9 | 6.08 µM (inactive) | 27.7 µM (inactive) | 21.3 µM (inactive) | 24.9 µM (inactive) | 27.9 µM (inactive) | 45.2 µM (inactive) | 17.5 µM (inactive) | 4.71 µM (inactive)
10 | O=C(/C=C/c1ccc(OCCCOc2ccc(/C=C/C(=O)c3ccccc3)cc2)cc1)c1ccccc1 | > 100 µM (inactive) | > 100 µM (inactive) | > 10 µM (inactive) | > 100 µM (inactive) | > 100 µM (inactive) |  |  | > 100 µM (inactive) | > 100 µM (inactive) | > 100 | > 100 µM (inactive) | > 100 µM (inactive) |  | 57.4 µM (inactive) | > 100 µM (inactive) | 36.3 µM (inactive) | > 100 µM (inactive) | > 100 µM (inactive)
11 | C=CCN1CCC23c4c5ccc(O)c4OC2C(=NN=C2CCC4(O)C6Cc7ccc(O)c8c7C4(CCN6CC=C)C2O8)CCC3(O)C1C5 (stereo not drawn) | 17.8 µM (inactive) | 19.9 µM (inactive) | 18.9 µM (inactive) | 19.1 µM (inactive) | 23 µM (inactive) | 44.5 µM (inactive) | 66.5 µM (inactive) | 20.4 µM (inactive) | 21.4 µM (inactive) | 35.5 | 20.5 µM (inactive) | 23.9 µM (inactive) | 21.2 µM (inactive) | 18.3 µM (inactive) | 25.6 µM (inactive) | > 100 µM (inactive) | 18 µM (inactive) | 
12 | Cc1cc2c(=O)c3ccc(Cl)cc3[nH]c2c(C(=O)O)c1C | > 100 µM (inactive) | > 100 µM (inactive) | > 100 µM (inactive) | > 100 µM (inactive) | > 100 µM (inactive) | > 100 µM (inactive) | > 100 µM (inactive) | > 100 µM (inactive) | > 100 µM (inactive) | > 100 | > 100 µM (inactive) | > 100 µM (inactive) | 32.4 µM (inactive) | > 100 µM (inactive) | > 100 µM (inactive) | > 100 µM (inactive) | > 100 µM (inactive) | 
13 | CC(C)(C)C(=O)Nc1ccccc1Br | > 100 µM (inactive) | > 100 µM (inactive) | > 100 µM (inactive) | > 100 µM (inactive) | > 100 µM (inactive) | > 100 µM (inactive) | > 100 µM (inactive) | > 100 µM (inactive) | > 100 µM (inactive) | > 100 | > 100 µM (inactive) | > 100 µM (inactive) | > 100 µM (inactive) | > 100 µM (inactive) | > 100 µM (inactive) | > 100 µM (inactive) | > 100 µM (inactive) | 
14 | COc1cc(O)c2c(c1)C(=O)C=C(Cl)C2=O | > 100 µM (inactive) | > 100 µM (inactive) | > 100 µM (inactive) | > 100 µM (inactive) |  | > 100 µM (inactive) | > 100 µM (inactive) | 87.1 µM (inactive) |  | > 100 |  | > 100 µM (inactive) | > 100 µM (inactive) | > 100 µM (inactive) | 64.7 µM (inactive) | 28.2 µM (inactive) | > 100 µM (inactive) | 
15 | Cc1ccccc1NC(=O)C(=O)c1c(O)c2ccc(O)cc2oc1=O | > 100 µM (inactive) | > 100 µM (inactive) | > 100 µM (inactive) | > 100 µM (inactive) | > 100 µM (inactive) | > 100 µM (inactive) |  | > 100 µM (inactive) | > 100 µM (inactive) | > 100 | > 100 µM (inactive) | > 100 µM (inactive) | > 100 µM (inactive) | > 100 µM (inactive) | > 100 µM (inactive) | > 100 µM (inactive) | > 100 µM (inactive) | 
16 | CCCN(CCC)c1c([N+](=O)[O-])cc(C(N)=O)cc1[N+](=O)[O-] | > 100 µM (inactive) | 86.9 µM (inactive) | 69 µM (inactive) | 62.1 µM (inactive) | > 100 µM (inactive) | 37.2 µM (inactive) | > 100 µM (inactive) | 1.16 µM (inactive) |  | 62.2 | 68.2 µM (inactive) | 49.4 µM (inactive) | > 100 µM (inactive) | > 100 µM (inactive) | 92.9 µM (inactive) | > 100 µM (inactive) | 74.5 µM (inactive) | 
17 | CC12CCC(=O)N1c1ccc([N+](=O)[O-])cc1N2 (stereo not drawn) | > 100 µM (inactive) | > 100 µM (inactive) | > 100 µM (inactive) | > 100 µM (inactive) | > 100 µM (inactive) |  |  | > 100 µM (inactive) | > 100 µM (inactive) | > 100 |  | > 100 µM (inactive) | > 100 µM (inactive) | > 100 µM (inactive) | > 100 µM (inactive) | 42.3 µM (inactive) | > 100 µM (inactive) | 71 µM (inactive)
18 | O=C(O)c1ccccc1NS(=O)(=O)c1ccc([N+](=O)[O-])cc1 | > 100 µM (inactive) | > 100 µM (inactive) | > 100 µM (inactive) | > 100 µM (inactive) | > 100 µM (inactive) | > 100 µM (inactive) | > 100 µM (inactive) | > 100 µM (inactive) | > 100 µM (inactive) | > 100 | > 100 µM (inactive) | > 100 µM (inactive) | > 100 µM (inactive) | > 100 µM (inactive) | > 100 µM (inactive) | > 100 µM (inactive) | > 100 µM (inactive) | 
